# Legend:
# Aromatase = target: T1, Aromatase (Homo sapiens, UniProt P11511);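 note: tritiated androstenedione turnover by human CYP19 with NADPH over 15 min, measured through liquid scintillation counting, value is the concentration halving enzyme activity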
# T1 sequence (P11511 whole entry): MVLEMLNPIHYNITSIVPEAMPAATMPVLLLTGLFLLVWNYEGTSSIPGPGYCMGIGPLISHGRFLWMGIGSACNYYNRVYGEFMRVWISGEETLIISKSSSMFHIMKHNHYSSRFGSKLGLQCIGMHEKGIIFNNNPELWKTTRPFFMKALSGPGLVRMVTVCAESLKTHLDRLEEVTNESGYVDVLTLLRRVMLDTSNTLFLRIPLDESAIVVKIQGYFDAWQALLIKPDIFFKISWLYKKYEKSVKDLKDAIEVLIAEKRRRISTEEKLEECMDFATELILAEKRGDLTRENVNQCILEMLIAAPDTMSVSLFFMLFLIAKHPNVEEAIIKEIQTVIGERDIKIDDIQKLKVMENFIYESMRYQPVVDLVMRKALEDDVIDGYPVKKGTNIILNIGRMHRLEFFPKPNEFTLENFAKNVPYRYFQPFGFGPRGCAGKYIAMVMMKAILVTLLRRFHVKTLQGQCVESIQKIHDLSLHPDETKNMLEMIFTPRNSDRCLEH
# CYP19 (aromatase) [1] = target: T2, CYP19 (aromatase) (Homo sapiens, UniProt P11511); test: Inhibition of human CYP19 assessed as residual activity at 10 uM using [1beta-3H]-androstenedione as substrate after 15 mins in presence of NADPH by liquid scintillation counter method relative to control; settings: probe [1beta-3H]-androstenedione, read-out: Activity
# T2 sequence (P11511 whole entry): T1 sequence (P11511 whole entry)
# CYP19 (aromatase) [2] = target: T2, CYP19 (aromatase); test: Inhibition of human CYP19 assessed as residual activity at 0.1 uM using [1beta-3H]-androstenedione as substrate after 15 mins in presence of NADPH by liquid scintillation counter method relative to control; settings: probe [1beta-3H]-androstenedione, read-out: Activity
Structure (SMILES),IC50 (Aromatase),"activity at 0.25 h, 10 µM (CYP19 (aromatase) [1])","activity at 0.25 h, 0.1 µM (CYP19 (aromatase) [2])"
CCN(CC)c1ccc2ccc(=O)oc2c1,> 10 µM,86%,–
O=c1ccc2ccc(-c3ccccc3)cc2o1,> 10 µM,–,–
COc1ccc(-c2ccc3ccc(=O)oc3c2)cc1,> 10 µM,–,–
CCN(CC)c1ccc2cc(-c3nc(-c4ccccc4)cs3)c(=O)oc2c1,> 10 µM,65%,–
CCN(CC)c1ccc2cc(-c3cc4ccc(N(CC)CC)cc4oc3=O)c(=O)oc2c1,0.0287 µM,0%,30%
CCOC(=O)c1oc(-c2cc3ccc(N(CC)CC)cc3oc2=O)nc1C,> 10 µM,22 to 104%,–
CCOC(=O)c1csc(-c2cc3ccc(N(CC)CC)cc3oc2=O)n1,1.1 µM,22%,–
O=c1ccc2ccc(-c3ccncc3)cc2o1,2.6 µM,14%,92%
CCN(CC)c1ccc2cc(-c3cnco3)c(=O)oc2c1,3.1 µM,22 to 104%,–
COc1ccc2cc(-c3cc4ccc(OC)cc4oc3=O)c(=O)oc2c1,> 10 µM,77%,–
CCN(CC)c1ccc2cc(-c3nc(CC(=O)OC)cs3)c(=O)oc2c1,> 10 µM,55%,–
O=c1ccc2ccc(-c3cccnc3)cc2o1,0.0303 µM,0%,25%
O=c1ccc2ccc(-c3ccccn3)cc2o1,> 10 µM,96%,–
CCN(CC)c1ccc2cc(-c3coc(-c4ccccc4)n3)c(=O)oc2c1,> 10 µM,22 to 104%,–
CCN(CC)c1ccc2cc(-c3nc(C)cs3)c(=O)oc2c1,1.1 µM,15%,–
CCN(CC)c1ccc2cc(-c3ncco3)c(=O)oc2c1,> 10 µM,22 to 104%,–
COc1ccc2ccc(=O)oc2c1 [HERNIARIN],> 10 µM,96%,–

# Source: ChEMBL document CHEMBL4020780, “Evaluation of synthesized coumarin derivatives on aromatase inhibitory activity” (Bioorg Med Chem Lett, 2017)
